What is called ED50 is the dose that gives a 50% effect, or the effect in half of the subjects.

Data on 15 compounds can be found in patent publication US4457932A, “Anti-ulcer agents” (Bristol-Myers Company, priority 1983, dated 1984).

Read-outs that look alike come from different tables or passages of the source.

Experiment [1] concerns ethanol-induced gastric ulcers (lesions). Description: Ethanol-induced ulcer model in the rat. In kind it is in vivo, Adult male Long-Evans rats. The following applies: for inhibition in vivo at 30 mg/kg: 30 mg/kg p.o.; for inhibition in vivo at 50 mg/kg: 50 mg/kg p.o. Here is the method:
The effectiveness of the compounds of Formula I as cytoprotective agents was determined by an ethanol-induced ulcer model in the rat. This model is a modification of the procedure described by A. Robert in Scand. J. Gastroenterology 16: (Suppl. 67): 243 (1981). This model which screens for cytoprotective compounds is based on the ability of 100% ethanol to produce gastric ulcers (primarily in the fundic region of the stomach) in rats in a dose-related manner. Further details of the model are described below.
Adult male Long-Evans rats weighing 275-300 grams (Blue Spruce Farm, Alton, N.Y.) are used. Animals are housed individually in stainless steel cages with wire-mesh bottoms. The housing battery is arranged into six groups of five each, individually numbered from rat number 1, group 1 to rat number 5, group 6. Food and water are removed 24 and 18 hours, respectively, prior to testing. On the following day animals receive the test compound either p.o., s.c. or i.p. 30 minutes or more before administration of 100% ethanol (3.0 ml/kg) by gavage. Sixty minutes later the animals are sacrificed by administration of T-61 (Hoechst), 0.2 ml i.p.
An abdominal incision is made and, after clamping the esophagus just above the esophageal sphincter with tweezers, the stomach is carefully lifted from the abdominal cavity. Two cuts are made approximately 1/2" below the pyloric valve and 1/2" above the esophageal sphincter, and the stomach removed and set aside. This step is very rapid (2-3 seconds) and no loss of gastric contents is apparent. The size of the stomach including contents is noted as small, medium or large. Stomachs are cut open along the lesser curvature and the contents expressed into graduated centrifuge tubes.
Under these conditions, ethanol produces prominent macroscopic lesions in the corpus, but gross macroscopic changes are only very rarely observed in the forestomach. […] In addition, absence of the forestomach allows the remaining stomach to lie flat on a surface for photography and examination without undue stretching of the tissue. For these reasons, the forestomach (along with nongastric tissue) is removed.
The remaining corpus and antrum are rinsed in water and placed flat in a standard position. The tissue is photographed with a Polaroid close-up camera and scoring of lesions is done from this permanent record. Each photograph includes a reference scale in mm. Two scoring systems are used. For screening purposes each stomach is graded on a scale of 0 to 3 as described below:
Where more precise data are needed, e,g, in determining the ED50 for a compound, the total lesion area in mm is measured. Barely visible spots (petechiae) are scored as 1 mm each. For each treatment group, an average score is calculated. From this, the percent inhibition of lesion formation, I, is calculated as:
I=Lesion Score (controls)-Lesion Score(treated)X 100 Lesion Score(controls)
In dose-response studies, the ED50 (dose at which 50% inhibition of lesion formation occurs) is determined by probit analysis according to Finney.

Experiment [2] has as its system aspirin-stress gastric ulcer. Description: Aspirin-stress gastric ulcer model in rats. It is filed as in vivo. To be noted: 100 mg/kg p.o. Here is the method:
(§1) The compound of Formula I wherein R^4 is methyl and R^1, R^2 and R^3 are each hydrogen was also tested in several other ulcer models. […] The results in the above models are probably indicative of the lack of significant anti-secretory activity in the compound of the present invention.

A further experiment relates to gastric secretion. Description: Gastric secretion in the conscious gastric fistula rat. In kind it is in vivo. To be noted: oral, read-out: oral ED50, block of gastric secretion. Here is the method: as §1
The test system of experiment [3] is HCl-induced gastric lesions. Description: HCl-induced gastric lesions in the rat. In kind it is in vivo. To be noted: po, read-out: ED50 against HCl-induced gastric lesions.
Experiment [4] deals with cysteamine-induced duodenal ulcer. In words: Cysteamine-induced duodenal ulcer model in rats. In kind it is in vivo. The following applies: dosed seven times over 30 hours (40 mg/kg, p.o.). The protocol: as §1
[5] abbreviates: po, rat, read-out: Antiulcer Activity, % Inhibition (of lesion formation).

For `O=c1c(-c2nnn[nH]2)cnc2ccc(Cl)cn12`, in experiment [1] (po, 12.6 mg/kg p.o., rat, read-out: Antiulcer Activity, % Inhibition (of lesion formation)), the inhibition in vivo at 12.6 mg/kg was 93%.

As to `O=c1c(-c2nnn[nH]2)cnc2c3c(ccn12)CCCC3`, the inhibition in vivo at 30 mg/kg in experiment [1] (setting [5]) was found to be 68%.

As for `Cc1cccc2ncc(-c3nnn[nH]3)c(=O)n12`, in experiment [1] (setting [5]), the inhibition in vivo at 30 mg/kg was found to be 75%.

In the case of `Cc1ccc2ncc(-c3nnn[nH]3)c(=O)n2c1`, the inhibition in vivo at 30 mg/kg in experiment [1] (setting [5]) was 79%.

Consider `CCCCc1ccc2ncc(-c3nnn[nH]3)c(=O)n2c1`, for which the inhibition in vivo at 30 mg/kg in experiment [1] (setting [5]) is 54%.

Turning to `Cc1cc(C)c2ncc(-c3nnn[nH]3)c(=O)n2c1`, in experiment [1] (setting [5]), the inhibition in vivo at 30 mg/kg turned out to be 92%.

Turning to `Cc1ccn2c(=O)c(-c3nnn[nH]3)cnc2c1`, the inhibition in vivo at 30 mg/kg in experiment [1] (setting [5]) came to 70%.

On to `CCc1cccn2c(=O)c(-c3nnn[nH]3)cnc12`, for which, in experiment [1] (setting [5]), the inhibition in vivo at 50 mg/kg is 96%.

With `CCCc1cccn2c(=O)c(-c3nnn[nH]3)cnc12`, in experiment [1] (setting [5]), the inhibition in vivo at 30 mg/kg was determined as 77%.

For the compound `CCCCc1cccn2c(=O)c(-c3nnn[nH]3)cnc12`, in experiment [1] (setting [5]), the inhibition in vivo at 50 mg/kg amounted to 41%.

On to `Cc1cccn2c(=O)c(-c3nnn[nH]3)cnc12`, for which the “activity in aspirin-stress gastric ulcer model” value in experiment [2] is “inactive”. For the same compound, the ED50 in the experiment with gastric secretion was determined as 27 mg/kg; in experiment [3], 20.8 mg/kg. In addition, the “activity in cysteamine-induced duodenal ulcer model” value in experiment [4] was “inactive”.

Consider `CN/C(=N/CCSCc1nc[nH]c1C)NC#N` [Cimetidine, reference compound], for which it took a dose of 235 mg/kg to reach the 50% effect level in experiment [1] (Rattus norvegicus) (ED50).

Regarding `CCCCC[C@H](O)/C=C/[C@H]1[C@H](O)CC(=O)[C@@H]1C/C=C\CCCC(=O)O` [PGE2, reference compound], the ED50 in experiment [1] (oral, rat, read-out: oral ED50) came out at 0.024 mg/kg.

On to `Cc1cccn2c(=O)c(-c3nnn[nH]3)cnc12` [drawing 30], for which, in experiment [1] (setting [5]), the inhibition in vivo at 30 mg/kg came out at 88%. Also, the ED50 in experiment [1] (po, rat, table footnote, read-out: ED50 (dose at which 50% inhibition of lesion formation occurs)) came to 0.3 mg/kg.

On to sucralfate [reference compound], for which, in experiment [1] (oral, rat), the “oral ED50” value is 21 mg/kg.
